Series [1] in a line: Solubility of the SEQ ID NO: 7 polypeptide substrate (working solution centrifuged, pellet observed). It counts as physicochemical. As to the method: 250 .micro.L of working solution is prepared as above. The solution is vortexed vigorously and appears to be in solution. The solution is centrifuged at ˜12,000 g for about 2 minutes. After centrifugation, a very small pink pellet is noted at the bottom of the tube. […] Another tube is prepared as above substituting water for the substrate buffer. This tube is also centrifuged. Once again a pink pellet is observed in the bottom of the tube. The pellet observed in the water solution is noticeably larger than the pellet observed in the substrate buffer solution.

For the next series, the target named is T1, ADAMTS13 (Homo sapiens, UniProt Q76LX8).
T1 construct: tissue Gen-Probe GTI Diagnostics (ATS-13 kit calibrators, controls and proficiency samples); George King Biomedical Inc. (FACT, A-FACT, B-FACT plasmas) ATS-13; host or cells: plasma
T1 sequence (Q76LX8 75-1427): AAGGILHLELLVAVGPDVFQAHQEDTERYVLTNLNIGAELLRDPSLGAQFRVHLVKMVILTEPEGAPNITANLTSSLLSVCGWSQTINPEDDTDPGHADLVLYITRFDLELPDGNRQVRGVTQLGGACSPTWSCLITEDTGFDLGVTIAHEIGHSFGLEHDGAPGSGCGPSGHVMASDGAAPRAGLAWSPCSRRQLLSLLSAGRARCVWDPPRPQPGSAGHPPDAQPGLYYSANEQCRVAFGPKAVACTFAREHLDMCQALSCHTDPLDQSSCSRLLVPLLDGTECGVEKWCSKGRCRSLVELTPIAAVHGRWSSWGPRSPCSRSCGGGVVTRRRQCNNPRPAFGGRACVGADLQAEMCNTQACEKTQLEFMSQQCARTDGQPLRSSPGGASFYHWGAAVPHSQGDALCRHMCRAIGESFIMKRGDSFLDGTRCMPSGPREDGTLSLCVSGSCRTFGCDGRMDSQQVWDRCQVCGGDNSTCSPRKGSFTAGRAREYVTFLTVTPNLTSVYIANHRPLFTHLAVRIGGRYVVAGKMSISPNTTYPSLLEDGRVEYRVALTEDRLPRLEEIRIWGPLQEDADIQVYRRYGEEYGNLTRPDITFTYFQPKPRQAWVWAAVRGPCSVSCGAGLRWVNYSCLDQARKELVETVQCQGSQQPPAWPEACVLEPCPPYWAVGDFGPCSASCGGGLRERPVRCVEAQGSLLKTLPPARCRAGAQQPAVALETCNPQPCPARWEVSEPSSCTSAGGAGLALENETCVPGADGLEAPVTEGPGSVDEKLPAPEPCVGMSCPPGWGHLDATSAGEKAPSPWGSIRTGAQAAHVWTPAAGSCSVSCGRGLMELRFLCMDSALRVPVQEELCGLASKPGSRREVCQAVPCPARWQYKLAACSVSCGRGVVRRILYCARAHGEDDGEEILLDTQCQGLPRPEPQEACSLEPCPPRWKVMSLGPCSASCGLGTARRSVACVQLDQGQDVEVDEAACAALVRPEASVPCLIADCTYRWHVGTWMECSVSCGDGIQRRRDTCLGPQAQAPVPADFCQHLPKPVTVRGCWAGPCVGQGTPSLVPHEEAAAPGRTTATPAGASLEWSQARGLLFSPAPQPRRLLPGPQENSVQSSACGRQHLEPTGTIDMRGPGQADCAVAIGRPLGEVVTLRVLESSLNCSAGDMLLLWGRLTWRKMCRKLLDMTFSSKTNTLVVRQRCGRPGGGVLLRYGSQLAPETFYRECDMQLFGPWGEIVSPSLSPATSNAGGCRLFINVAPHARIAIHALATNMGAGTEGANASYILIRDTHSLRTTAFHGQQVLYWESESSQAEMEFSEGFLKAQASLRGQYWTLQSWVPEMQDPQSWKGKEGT
Kind of series: ADAMTS13 activity assay with fluorogenic (FRET) polypeptide substrate and diluted plasma samples. The class given is biochemical. The note with it: for Assigned/Expected % Normal ADAMTS13 Activity Values Based on FRETS-VWF73 Substrate: incubation 30 Minutes. On the procedure: The procedure in this example was performed substantially as described in Kokame, K., Y. Nobe, Y. Kokubo, A. Okayama, and T. Miyata. 2005. FRETS-VWF73, a first fluorogenic substrate for ADAMTS13 assay. Br. J. Haematol. 129:93-100, but using SEQ ID NO: 1 in place of the 73 amino acid substrate described therein. The FRETS-VWF73 substrate solution was dissolved in 25% dimethyl sulphoxide/water to prepare the 100 microM stock solution. The GTI FRET4 SEQ ID NO: 1 was dissolved in 100% DMSO. Both substrates were diluted to equal concentrations using ATS-13 substrate buffer (Gen-Probe GT1 Diagnostics, Inc., U.S.A., Cat#ATS-13).
Plasma samples were diluted according to the ATS-13 Direction Insert using ATS-13 specimen diluent (Gen-Probe GTI Diagnostics, Inc., U.S.A., Cat# ATS-13). The diluted plasma samples were mixed with the diluted substrate and the fluorescence was read at 0, 5, 10, 15, 20, 30, 45 minutes using a Biotek FLX800 at the appropriate excitation and emission wavelengths for each substrate.
The fluorophore-quencher pair in the SEQ ID NO: 1 polypeptide substrate is FAM-5/TQ 2^Tm (Ex 485±20; Em 528±20; AAT Bioquest, Inc. Sunnyvale, Calif. U.S.A.). The fluorophore and quencher pair of FRETS-VWF73 (Nma/Dnp) described in Kokame has been substituted with FAM-5 and TQ_2 respectively in GTI_FRET4 SEQ ID NO: 1. Furthermore, in the SEQ ID NO: 1 polypeptide the position of the fluorophore (FAM-5) and quencher (TQ_2) has been swapped relative to the position of the fluorophore and quencher of the FRETS-VWF73 construct. Therefore, for GTI_FRET4 SEQ ID NO: 1, attachment of the fluorophore (FAM-5) occurs by substituting asparagine with cystine at position 15. The quencher (TQ_2) was attached by substituting glutamine with lysine at position 4 (FIG. 2 and Table 4).
For this experiment, substrate concentration and fluorescence reader settings determined on the previous experiment are used. The specimens tested (listed in Table 3), include a panel of proficiency samples prepared for use with ATS-13 (Gen-Probe GTI Diagnostics, Inc., U.S.A., Cat# ATS-13) which included samples with normal or deficient ADAMTS13 activity levels. In addition, six Factor Assay ConTrol plasma were used (2 FACT, 2 A-FACT and 2 B-FACT, from George King Biomedical Inc., Kansas, USA). The assays for the SEQ ID NO: 1 substrate and for the prior art FRETS-VWF73 assay were performed generally as according to the procedure described in Example 1. Substrate is prepared according to the conditions used for initial testing of the substrate, which prepared the molar amount of SEQ ID NO: 1 polypeptide substrate used in the assay to be equivalent to the molar amount of FRETS-VWF73 used in the prior art. The […] assays were read at 0, 5, 10, 15, 20, 30, 45 minutes.
Testing of substrate for cleavability by ADAMTS13 is determined as is generally described in Example 1. […]

No end group written: not given here.

Consider “DREKAPNLVYMVTGCPASDEIKRLPGDIIGWPNAPILIQDFETLPREAPDLVLQR [GTI_FRET5]”, for which, in series [1] (pellet size after centrifugation), the “solubility in water compared with substrate buffer” value is listed as “less soluble in water than in the buffer”. The “solubility in the working solution as prepared” value in series [1] (substrate buffer, centrifuged ~12,000 g about 2 minutes) is reported as “not completely soluble”.

In the case of “DREQAPNLVYMVTGNPASDEIKRLPGDIQVVPIGVGPNANVOELERIGWPNAPILIQDFLTLPREAPDLVLQR [FRETS-VWF73, reference compound]”, the “reaction time in the ADAMTS13 assay” value at ADAMTS13 is 30 min. In addition, the “trend line of the calibration curve” value at ADAMTS13 is recorded as “polynomial”. The “difference between Calibrator A and E, dynamic range” value at ADAMTS13 (Example 2, at 30 minutes) is on record as 2500 RFU. The “Assigned/Expected % Normal ADAMTS13 Activity Values Based on FRETS-VWF73 Substrate” value on ADAMTS13 (sample Calibrator A) is 0 % Normal; at ADAMTS13 (sample Calibrator B), 9 % Normal; on ADAMTS13 (sample Calibrator C), 34 % Normal; on ADAMTS13 (sample Calibrator D) it was 55 % Normal; at ADAMTS13 (sample Calibrator E) it was 102 % Normal; at ADAMTS13 (sample MON110707) it was ~90-100 % Normal. Further, the “Assigned/Expected % Normal ADAMTS13 Activity Values Based on FRETS-VWF73 Substrate” value was 36-54 % Normal on ADAMTS13 (sample Positive Control High), 6-17 % Normal at ADAMTS13 (sample Positive Control Low), ~35 % Normal on ADAMTS13 (sample UAMS041609) and ~20 % Normal at ADAMTS13 (sample VF).

(Values after US10538802B2, “Polypeptide substrate for the detection of von Williebrand factor cleaving protease ADAMTS13” (IMMUCOR GTI DIAGNOSTICS, INC., priority 2011, dated 2020).)
